Source: patent publication US12472193B2, “Methods and compositions for treating and preventing respiratory related diseases and conditions with xylitol-headgroup lipid analogs” (National Jewish Health, priority 2017, dated 2025)
“Also recorded” adds a separate entry of the source.

Legend:
[1] = target: T1, TLR 3 (Homo sapiens, UniProt O15455); assay: poly I:C-induced IL-8 release by BEAS2B cells (TLR 3 antagonism); format: cell-based; conditions: for antagonism of TLR 3 activation (IL-8 release): poly I:C, 200 μg/ml lipid, 48 hours; for TLR3 antagonist activity: reduction in cytokine secretion vs activating TLR ligand alone; for IL-8 release from BEAS2B cells in the absence of poly I:C: lipid alone
T1 construct: endogenous in cells; host or cells: BEAS2B (ATCC)
T1 sequence (O15455 24-904): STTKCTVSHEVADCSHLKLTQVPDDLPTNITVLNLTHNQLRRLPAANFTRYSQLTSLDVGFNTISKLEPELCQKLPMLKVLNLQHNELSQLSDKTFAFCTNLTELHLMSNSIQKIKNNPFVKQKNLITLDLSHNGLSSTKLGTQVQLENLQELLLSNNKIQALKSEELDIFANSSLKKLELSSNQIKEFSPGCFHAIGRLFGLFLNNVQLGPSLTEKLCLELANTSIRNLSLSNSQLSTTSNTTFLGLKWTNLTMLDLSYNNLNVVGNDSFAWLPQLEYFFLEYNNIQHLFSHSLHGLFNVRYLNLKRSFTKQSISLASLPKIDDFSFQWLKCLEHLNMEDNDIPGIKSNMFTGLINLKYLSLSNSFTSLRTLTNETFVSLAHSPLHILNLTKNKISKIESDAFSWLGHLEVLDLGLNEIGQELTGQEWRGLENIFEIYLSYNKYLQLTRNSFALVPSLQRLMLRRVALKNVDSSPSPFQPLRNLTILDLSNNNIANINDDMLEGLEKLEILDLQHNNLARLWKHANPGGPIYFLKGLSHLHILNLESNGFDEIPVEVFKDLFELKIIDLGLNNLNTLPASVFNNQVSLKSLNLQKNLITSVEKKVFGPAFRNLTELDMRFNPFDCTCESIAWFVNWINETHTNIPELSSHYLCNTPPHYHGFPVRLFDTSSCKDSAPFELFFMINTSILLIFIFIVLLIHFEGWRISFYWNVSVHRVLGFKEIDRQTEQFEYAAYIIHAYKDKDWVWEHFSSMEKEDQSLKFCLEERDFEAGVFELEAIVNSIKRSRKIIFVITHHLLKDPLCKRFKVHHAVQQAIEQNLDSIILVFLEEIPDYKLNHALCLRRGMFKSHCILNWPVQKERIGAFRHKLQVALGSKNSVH
Method: Human bronchial epithelial cells, BEAS2B, were obtained from ATCC and maintained in bronchial epithelial cell growth medium (BEGM), supplemented with the BulleKit from Lonza in accordance with protocol (M. H. Hudy, S. et al., “Cigarette smoke modulates rhinovirus-induced airway epithelial cell chemokine production.,” Eur. Respir. J., vol. 35, no. 6, pp. 1256-63, June 2010). Cells were cultured at 37 C with 5% carbon dioxide:95% air atmosphere maintained within the incubator. Experiments were conducted in 48-well plates and cells were seated at a density of 5×10^4 per well. After 24 hours, the BEGM medium was replaced with RPMI-1640 medium and incubated for an additional 24 hours. Liposomes were prepared as described above. Each condition for cell stimulation and antagonism was prepared in RPMI medium in a separate tube and consisted of: control (medium alone), TLR agonist, TLR agonist+lipid, and lipid alone. The cells were incubated in […] medium either with or without agonists and antagonists at 37° C. for 48 hours. Subsequently, media were collected, diluted and an enzyme-linked immunosorbent assay (ELISA) was performed to quantify IL-8 release by cells.
The ability of PX lipids to enter the endosomal compartment and modulate immune signaling was next assessed. The human bronchial epithelial cell line, BEAS2B, expresses TLR 3 in its endosomal compartments and is susceptible to infection by respiratory syncytial virus, making this cell line ideal cell line for this study. BEAS2B cells were stimulated with the TLR 3 agonist, poly I:C, in the presence or absence of phospholipid for 48 hours. After incubation, media was collected and IL-8 was quantified as a consequence of TLR 3 activation, and results are summarized in FIG. 5. […] Results from these experiments indicate that xylitol analogs were able to gain entry into BEAS2B cells and inhibit TLR 3 signaling. […] Thus, DMPX, 16:1 DPPX and 18:2 DLPX act as […]

[2] = system: RSV; assay: Quantitative RSV plaque assay in HEp2 cells; format: cell-based, human RSV A2 strain; conditions: for antiviral activity against RSV by plaque assay: 50 μg/mL lipid, HEp2, 37° C.
Method: Viral stocks were propagated in HEp2 cell monolayers using DMEM/Ham's F12 Medium (GIBCO), plus 5% bovine growth serum (Hyclone) with 1× penicillin streptomycin, and virus was purified using methods previously described [M. Numata, H. W. Chu, A. Dakhama, and D. R. Voelker, “Pulmonary surfactant phosphatidylglycerol inhibits respiratory syncytial virus-induced inflammation and infection.,” Proc. Natl. Acad. Sci. U.S.A., vol. 107, no. 1, pp. 320-5, 2010.]. Viral titers and growth were measured by plaque assays [J. L. McKimm-Breschkin, “A simplified plaque assay for respiratory syncytial virus—direct visualization of plaques without immunostaining,” 2004.]. The antiviral activity of xylitol-headgroup lipids was determined by in vitro RSV infection in the presence or absence of lipid and infectious particles were quantified by viral plaque assay. HEp2 cells were plated at a density of 1.8×10^6 per well in a 6 well plate 24 hours prior to infection in order to create a uniform monolayer. Cell monolayers were infected for 2 hours at 37° C. with serial dilutions of RSV alone and RSV in combination with 50 μg/mL of phospholipid. Following the 2-hour period of infection, the inoculum was removed and 3 mL of medium containing 0.3% agarose was added, allowed to solidify and placed in a 37° C. incubator for 6 days. On day 6 the cells were fixed overnight with formalin and then stained with a neutral red stain and viral plaques were quantified visually.
An optimized quantitative plaque assay (described for RSV by J. L. McKimm-Breschkin, “A simplified plaque assay for respiratory syncytial virus-direct visualization of plaques without immunostaining,” 2004) was applied to survey the ability of PX lipids to inhibit RSV infection. The human epithelial cell line, HEp2, was seeded at a density of 1.8×10^6 per well in a 6-well plate 24 hours in advance of infection. Reaction conditions for infection took place in serum-free medium and were combined before addition to cells. A standard dilution of virus alone was prepared and 50 μg/mL phospholipid in combination with RSV was also prepared. Cells were washed with PBS to remove any serum prior to infection and then 500 μL of virus in various combinations with lipids was added to each well and incubated at 37° C. for 2 hours. Plates were rotated every 20 minutes for even distribution of viral infection. After infection, the viral inoculum was removed and medium containing 0.3% agarose was added to each well and allowed to solidify then placed back into the incubator at 37° C. for 6 days. On day 6, cells were fixed overnight then the agarose layer was removed and wells were stained with neutral red and viral plaques counted. POPG is a known inhibitor of RSV infection in vitro and in vivo. […] Ester-linked saturated xylitol lipids composed the moderately effective antivirals. The sole xylitol analog that was determined ineffective was saturated and ether-linked.

| SMILES | antagonism of TLR 3 activation (IL-8 release) [1] | TLR3 antagonist activity [1] | antiviral activity against RSV by plaque assay [2] | reduction of RSV viral infection by a factor of ([2]; 50 μg/ml lipid, 10^4 infectious virus/ml, HEp2) | IL-8 release from BEAS2B cells in the absence of poly I:C [1] |
| --- | --- | --- | --- | --- | --- |
| CCCCCCCCCCCCCCOC[C@H](COP(=O)(O)OCC(O)C(O)C(O)CO)OCCCCCCCCCCCCCC (mixture of isomers) [14:0 DEPX, sn-1-O-myristyl, sn-2-O-myristyl sn-3 glycerol phosphoxylitol] | suppressed/inhibited activation of TLR3 | + (cutoff being greater than a 50% reduction in cytokine secretion compared to activating TLR ligand alone) | ineffective as an antiviral; also recorded: ineffective at preventing RSV infection; also recorded: did not inhibit plaque formation |  |  |
| CCCCCCCC/C=C\CCCCCCCC(=O)O[C@H](COC(=O)CCCCCCCCCCCCCCC)COP(=O)([O-])OCC[N+](C)(C)C [POPC, 1-palmitoyl-2-oleoyl-sn-glycero-3-phosphocholine, reference compound] | unaffected |  | ineffective as an antiviral |  |  |
| CCCCCCCC/C=C\CCCCCCCC(=O)O[C@H](COC(=O)CCCCCCCCCCCCCCC)COP(=O)(O)OCC(O)CO (stereo partly shown) [POPG, palmitoyl-oleoyl-phosphatidylglycerol, reference compound] | markedly inhibited |  |  | > 10^4 |  |
| CCCCCCCCC=CCCCCCCCC(=O)OCC(COP(=O)(O)OCC(O)C(O)C(O)CO)OC(=O)CCCCCCCC=CCCCCCCCC (mixture of isomers) [DOPX, sn-1-oleoyl, sn-2-oleoyl sn-3 glycerol phosphoxylitol] | suppressed/inhibited activation of TLR3 | + (cutoff being greater than a 50% reduction in cytokine secretion compared to activating TLR ligand alone) | inhibit infection and propagation of RSV |  |  |
| CCCCCCCCCCCCCCCCCC(=O)OCC(COP(=O)(O)OCC(O)C(O)C(O)CO)OC(=O)CCCCCCCCCCCCCCCCC (stereo not shown) [DSPX, sn-1-stearoyl, sn-2-stearoyl sn-3 glycerol phosphoxylitol] | suppressed/inhibited activation of TLR3 | + (cutoff being greater than a 50% reduction in cytokine secretion compared to activating TLR ligand alone) | moderate antiviral activity |  |  |
| CCCCCCCC/C=C\CCCCCCCC(=O)O[C@H](COC(=O)CCCCCCCCCCCCCCC)COP(=O)(O)OCC(O)C(O)C(O)CO (stereo partly shown) [POPX, sn-1-palmitoyl, sn-2-oleoyly sn-3 glycerol phosphoxylitol] | suppressed/inhibited activation of TLR3 | + (cutoff being greater than a 50% reduction in cytokine secretion compared to activating TLR ligand alone) |  |  |  |
| CCCCCCCCCCCCCC(=O)OC[C@H](COP(=O)(O)OCC(O)C(O)C(O)CO)OC(=O)CCCCCCCCCCCCC (mixture of isomers) [DMPX, sn-1-myristoyl, sn-2-myristoyl sn-3 glycerol phosphoxylitol] | ineffective antagonists of TLR 3 |  | moderate antiviral activity |  | elicited an inflammatory response |
| CCCCCCCCC=CCCCCCCCCOCC(COP(=O)(O)OCC(O)C(O)C(O)CO)OCCCCCCCCC=CCCCCCCCC (mixture of isomers) [18:1 DEPX, sn-1-O-octadecenyl, sn-2-O-octadecenyl sn-3 glycerol phosphoxylitol] | suppressed/inhibited activation of TLR3 | + (cutoff being greater than a 50% reduction in cytokine secretion compared to activating TLR ligand alone) | inhibit infection and propagation of RSV |  |  |
| CCCCCCCCCCCCCCCC(=O)OCC(COP(=O)(O)OCC(O)C(O)C(O)CO)OC(=O)CCCCCCCCCCCCCCC (stereo not shown) [DPPX, sn-1-palmitoyl, sn-2-palmitoyl sn-3 glycerol phosphoxylitol] | suppressed/inhibited activation of TLR3 | + (cutoff being greater than a 50% reduction in cytokine secretion compared to activating TLR ligand alone) | moderate antiviral activity |  |  |
| CCCCCCC=CCCCCCCCC(=O)OCC(COP(=O)(O)OCC(O)C(O)C(O)CO)OC(=O)CCCCCCCC=CCCCCCC (mixture of isomers) [16:1 DPPX, sn-1-palmitoleoyl, sn-2-palmitoleoyl sn-3 glycerol phosphoxylitol] | stimulated a robust release of IL-8; also recorded: ineffective antagonists of TLR 3 |  |  |  | stimulated a robust release of IL-8 |
| CCCCCC=CCC=CCCCCCCCC(=O)OCC(COP(=O)(O)OCC(O)C(O)C(O)CO)OC(=O)CCCCCCCC=CCC=CCCCCC (mixture of isomers) [18:2 DLPX, sn-1-linoleoyl, sn-2-linoleoyl sn-3 glycerol phosphoxylitol] | ineffective antagonists of TLR 3 |  |  |  | elicited an inflammatory response |
